Source: the NIST ThermoML archive (doi:10.1016/j.jct.2016.06.023)
Numbers after ± are expanded uncertainties.

Experiment: mn = molality of the nth substance listed, in mol/kg
Settings: 101.3 kPa, Liquid, Vibrating tube method

O=C(O)CC(=O)O [propanedioic acid] + O
mass density (278.15 K, m1 = 0.01001): 1000.48 ± 0.4 kg/m3
mass density (278.15 K, m1 = 0.02001): 1000.91 ± 0.4 kg/m3
mass density (278.15 K, m1 = 0.03): 1001.31 ± 0.4 kg/m3
mass density (278.15 K, m1 = 0.03962): 1001.73 ± 0.4 kg/m3
mass density (278.15 K, m1 = 0.04998): 1002.16 ± 0.4 kg/m3
mass density (278.15 K, m1 = 0.05936): 1002.53 ± 0.4 kg/m3
mass density (278.15 K, m1 = 0.06926): 1002.93 ± 0.4 kg/m3
mass density (278.15 K, m1 = 0.07949): 1003.34 ± 0.4 kg/m3
mass density (278.15 K, m1 = 0.08906): 1003.73 ± 0.4 kg/m3
mass density (278.15 K, m1 = 0.09935): 1004.11 ± 0.4 kg/m3
mass density (278.15 K, m1 = 0.1984): 1008.06 ± 0.4 kg/m3
mass density (278.15 K, m1 = 0.2977): 1011.96 ± 0.4 kg/m3
mass density (278.15 K, m1 = 0.404): 1016 ± 0.4 kg/m3
mass density (278.15 K, m1 = 0.5055): 1019.85 ± 0.4 kg/m3
mass density (278.15 K, m1 = 0.6055): 1023.51 ± 0.4 kg/m3
mass density (278.15 K, m1 = 0.6936): 1026.73 ± 0.4 kg/m3
mass density (278.15 K, m1 = 0.7926): 1030.29 ± 0.41 kg/m3
mass density (278.15 K, m1 = 0.891): 1033.82 ± 0.41 kg/m3
mass density (278.15 K, m1 = 0.9895): 1037.16 ± 0.41 kg/m3
mass density (283.15 K, m1 = 0.01001): 1000.21 ± 0.4 kg/m3
mass density (283.15 K, m1 = 0.02001): 1000.62 ± 0.4 kg/m3
mass density (283.15 K, m1 = 0.03): 1001 ± 0.4 kg/m3
mass density (283.15 K, m1 = 0.03962): 1001.4 ± 0.4 kg/m3
mass density (283.15 K, m1 = 0.04998): 1001.83 ± 0.4 kg/m3
mass density (283.15 K, m1 = 0.05936): 1002.19 ± 0.4 kg/m3
mass density (283.15 K, m1 = 0.06926): 1002.58 ± 0.4 kg/m3
mass density (283.15 K, m1 = 0.07949): 1002.98 ± 0.4 kg/m3
mass density (283.15 K, m1 = 0.08906): 1003.36 ± 0.4 kg/m3
mass density (283.15 K, m1 = 0.09935): 1003.73 ± 0.4 kg/m3
mass density (283.15 K, m1 = 0.1984): 1007.6 ± 0.4 kg/m3
mass density (283.15 K, m1 = 0.2977): 1011.4 ± 0.4 kg/m3
mass density (283.15 K, m1 = 0.404): 1015.36 ± 0.4 kg/m3
mass density (283.15 K, m1 = 0.5055): 1019.12 ± 0.4 kg/m3
mass density (283.15 K, m1 = 0.6055): 1022.71 ± 0.4 kg/m3
mass density (283.15 K, m1 = 0.6936): 1025.86 ± 0.4 kg/m3
mass density (283.15 K, m1 = 0.7926): 1029.35 ± 0.4 kg/m3
mass density (283.15 K, m1 = 0.891): 1032.8 ± 0.41 kg/m3
mass density (283.15 K, m1 = 0.9895): 1036.1 ± 0.41 kg/m3
mass density (288.15 K, m1 = 0.01001): 999.61 ± 0.4 kg/m3
mass density (288.15 K, m1 = 0.02001): 1000.03 ± 0.4 kg/m3
mass density (288.15 K, m1 = 0.03): 1000.4 ± 0.4 kg/m3
mass density (288.15 K, m1 = 0.03962): 1000.79 ± 0.4 kg/m3
mass density (288.15 K, m1 = 0.04998): 1001.21 ± 0.4 kg/m3
mass density (288.15 K, m1 = 0.05936): 1001.57 ± 0.4 kg/m3
mass density (288.15 K, m1 = 0.06926): 1001.95 ± 0.4 kg/m3
mass density (288.15 K, m1 = 0.07949): 1002.34 ± 0.4 kg/m3
mass density (288.15 K, m1 = 0.08906): 1002.71 ± 0.4 kg/m3
mass density (288.15 K, m1 = 0.09935): 1003.07 ± 0.4 kg/m3
mass density (288.15 K, m1 = 0.1984): 1006.87 ± 0.4 kg/m3
mass density (288.15 K, m1 = 0.2977): 1010.6 ± 0.4 kg/m3
mass density (288.15 K, m1 = 0.404): 1014.47 ± 0.4 kg/m3
mass density (288.15 K, m1 = 0.5055): 1018.15 ± 0.4 kg/m3
mass density (288.15 K, m1 = 0.6055): 1021.67 ± 0.4 kg/m3
mass density (288.15 K, m1 = 0.6936): 1024.77 ± 0.4 kg/m3
mass density (288.15 K, m1 = 0.7926): 1028.19 ± 0.4 kg/m3
mass density (288.15 K, m1 = 0.891): 1031.58 ± 0.4 kg/m3
mass density (288.15 K, m1 = 0.9895): 1034.82 ± 0.41 kg/m3
mass density (293.15 K, m1 = 0.01001): 998.7 ± 0.4 kg/m3
mass density (293.15 K, m1 = 0.02001): 999.1 ± 0.4 kg/m3
mass density (293.15 K, m1 = 0.03): 999.47 ± 0.4 kg/m3
mass density (293.15 K, m1 = 0.03962): 999.85 ± 0.4 kg/m3
mass density (293.15 K, m1 = 0.04998): 1000.27 ± 0.4 kg/m3
mass density (293.15 K, m1 = 0.05936): 1000.61 ± 0.4 kg/m3
mass density (293.15 K, m1 = 0.06926): 1000.99 ± 0.4 kg/m3
mass density (293.15 K, m1 = 0.07949): 1001.37 ± 0.4 kg/m3
mass density (293.15 K, m1 = 0.08906): 1001.73 ± 0.4 kg/m3
mass density (293.15 K, m1 = 0.09935): 1002.12 ± 0.4 kg/m3
mass density (293.15 K, m1 = 0.1984): 1005.8 ± 0.4 kg/m3
mass density (293.15 K, m1 = 0.2977): 1009.46 ± 0.4 kg/m3
mass density (293.15 K, m1 = 0.404): 1013.26 ± 0.4 kg/m3
mass density (293.15 K, m1 = 0.5055): 1016.89 ± 0.4 kg/m3
mass density (293.15 K, m1 = 0.6055): 1020.35 ± 0.4 kg/m3
mass density (293.15 K, m1 = 0.6936): 1023.39 ± 0.4 kg/m3
mass density (293.15 K, m1 = 0.7926): 1026.76 ± 0.4 kg/m3
mass density (293.15 K, m1 = 0.891): 1030.1 ± 0.4 kg/m3
mass density (293.15 K, m1 = 0.9895): 1033.27 ± 0.41 kg/m3
mass density (298.15 K, m1 = 0.01001): 997.52 ± 0.4 kg/m3
mass density (298.15 K, m1 = 0.02001): 997.93 ± 0.4 kg/m3
mass density (298.15 K, m1 = 0.03): 998.3 ± 0.4 kg/m3
mass density (298.15 K, m1 = 0.03962): 998.66 ± 0.4 kg/m3
mass density (298.15 K, m1 = 0.04998): 999.07 ± 0.4 kg/m3
mass density (298.15 K, m1 = 0.05936): 999.4 ± 0.4 kg/m3
mass density (298.15 K, m1 = 0.06926): 999.78 ± 0.4 kg/m3
mass density (298.15 K, m1 = 0.07949): 1000.15 ± 0.4 kg/m3
mass density (298.15 K, m1 = 0.08906): 1000.52 ± 0.4 kg/m3
mass density (298.15 K, m1 = 0.09935): 1000.89 ± 0.4 kg/m3
mass density (298.15 K, m1 = 0.1984): 1004.55 ± 0.4 kg/m3
mass density (298.15 K, m1 = 0.2977): 1008.15 ± 0.4 kg/m3
mass density (298.15 K, m1 = 0.404): 1011.88 ± 0.4 kg/m3
mass density (298.15 K, m1 = 0.5055): 1015.45 ± 0.4 kg/m3
mass density (298.15 K, m1 = 0.6055): 1018.85 ± 0.4 kg/m3
mass density (298.15 K, m1 = 0.6936): 1021.85 ± 0.4 kg/m3
mass density (298.15 K, m1 = 0.7926): 1025.16 ± 0.4 kg/m3
mass density (298.15 K, m1 = 0.891): 1028.44 ± 0.4 kg/m3
mass density (298.15 K, m1 = 0.9895): 1031.58 ± 0.4 kg/m3
mass density (303.15 K, m1 = 0.01001): 996.14 ± 0.4 kg/m3
mass density (303.15 K, m1 = 0.02001): 996.53 ± 0.4 kg/m3
mass density (303.15 K, m1 = 0.03): 996.9 ± 0.4 kg/m3
mass density (303.15 K, m1 = 0.03962): 997.28 ± 0.4 kg/m3
mass density (303.15 K, m1 = 0.04998): 997.66 ± 0.4 kg/m3
mass density (303.15 K, m1 = 0.05936): 997.99 ± 0.4 kg/m3
mass density (303.15 K, m1 = 0.06926): 998.37 ± 0.4 kg/m3
mass density (303.15 K, m1 = 0.07949): 998.72 ± 0.4 kg/m3
mass density (303.15 K, m1 = 0.08906): 999.08 ± 0.4 kg/m3
mass density (303.15 K, m1 = 0.09935): 999.45 ± 0.4 kg/m3
mass density (303.15 K, m1 = 0.1984): 1003.05 ± 0.4 kg/m3
mass density (303.15 K, m1 = 0.2977): 1006.6 ± 0.4 kg/m3
mass density (303.15 K, m1 = 0.404): 1010.27 ± 0.4 kg/m3
mass density (303.15 K, m1 = 0.5055): 1013.79 ± 0.4 kg/m3
mass density (303.15 K, m1 = 0.6055): 1017.14 ± 0.4 kg/m3
mass density (303.15 K, m1 = 0.6936): 1020.08 ± 0.4 kg/m3
mass density (303.15 K, m1 = 0.7926): 1023.35 ± 0.4 kg/m3
mass density (303.15 K, m1 = 0.891): 1026.58 ± 0.4 kg/m3
mass density (303.15 K, m1 = 0.9895): 1029.66 ± 0.4 kg/m3
mass density (308.15 K, m1 = 0.01001): 994.51 ± 0.4 kg/m3
mass density (308.15 K, m1 = 0.02001): 994.89 ± 0.4 kg/m3
mass density (308.15 K, m1 = 0.03): 995.23 ± 0.4 kg/m3
mass density (308.15 K, m1 = 0.03962): 995.6 ± 0.4 kg/m3
mass density (308.15 K, m1 = 0.04998): 996 ± 0.4 kg/m3
mass density (308.15 K, m1 = 0.05936): 996.33 ± 0.4 kg/m3
mass density (308.15 K, m1 = 0.06926): 996.69 ± 0.4 kg/m3
mass density (308.15 K, m1 = 0.07949): 997.06 ± 0.4 kg/m3
mass density (308.15 K, m1 = 0.08906): 997.4 ± 0.4 kg/m3
mass density (308.15 K, m1 = 0.09935): 997.74 ± 0.4 kg/m3
mass density (308.15 K, m1 = 0.1984): 1001.28 ± 0.4 kg/m3
mass density (308.15 K, m1 = 0.2977): 1004.77 ± 0.4 kg/m3
mass density (308.15 K, m1 = 0.404): 1008.39 ± 0.4 kg/m3
mass density (308.15 K, m1 = 0.5055): 1011.84 ± 0.4 kg/m3
mass density (308.15 K, m1 = 0.6055): 1015.15 ± 0.4 kg/m3
mass density (308.15 K, m1 = 0.6936): 1018.07 ± 0.4 kg/m3
mass density (308.15 K, m1 = 0.7926): 1021.29 ± 0.4 kg/m3
mass density (308.15 K, m1 = 0.891): 1024.47 ± 0.4 kg/m3
mass density (308.15 K, m1 = 0.9895): 1027.51 ± 0.4 kg/m3
